According to US11993599B2, “Therapeutic compounds” (Genentech, Inc., priority 2021, dated 2024):

Columns and labels:
BRG1 = biological target: T1, BRG1 (Homo sapiens, UniProt P51532); assay: Immunofluorescence assay for BRG1 degradation in SW1573 cells; type: cell-based; conditions: 20 hours incubation; for DC50: immunofluorescence mean nuclear signal, read-out: BRG1 IF Degradation IC50; for Dmax: SW1573, 20 h, normalized to a known degrader control, read-out: BRG1 IF Degradation Sinf (%)
T1 construct: either BRM primary antibody (Cell signaling Cat #11966) or BRG primary antibody (Abcam, ab 110641); endogenous in cells; host or cells: SW1573
Outline: (§1)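 Degradation measured as loss of nuclear BRM or BRG1 staining in SW1573 cells after 20 h compound exposure. Signal per cell was imaged and normalized to a known degrader; curves with floating maximum yielded IC50 and Dmax.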

BRM = BRM (Homo sapiens, UniProt P51531); assay: Immunofluorescence assay for BRM degradation in SW1573 cells; type: cell-based; set-up: treated overnight at 4° C. with either BRM primary antibody (Cell signaling Cat #11966) or BRG primary antibody; endogenous in cells; host or cells: SW1573; conditions: 20 hours incubation; for DC50: immunofluorescence mean nuclear signal, read-out: BRM IF Degradation IC50; for BRM IF Degradation Sinf (%): normalized to a known degrader control
Outline: as §1

T1 sequence (P51532 whole entry): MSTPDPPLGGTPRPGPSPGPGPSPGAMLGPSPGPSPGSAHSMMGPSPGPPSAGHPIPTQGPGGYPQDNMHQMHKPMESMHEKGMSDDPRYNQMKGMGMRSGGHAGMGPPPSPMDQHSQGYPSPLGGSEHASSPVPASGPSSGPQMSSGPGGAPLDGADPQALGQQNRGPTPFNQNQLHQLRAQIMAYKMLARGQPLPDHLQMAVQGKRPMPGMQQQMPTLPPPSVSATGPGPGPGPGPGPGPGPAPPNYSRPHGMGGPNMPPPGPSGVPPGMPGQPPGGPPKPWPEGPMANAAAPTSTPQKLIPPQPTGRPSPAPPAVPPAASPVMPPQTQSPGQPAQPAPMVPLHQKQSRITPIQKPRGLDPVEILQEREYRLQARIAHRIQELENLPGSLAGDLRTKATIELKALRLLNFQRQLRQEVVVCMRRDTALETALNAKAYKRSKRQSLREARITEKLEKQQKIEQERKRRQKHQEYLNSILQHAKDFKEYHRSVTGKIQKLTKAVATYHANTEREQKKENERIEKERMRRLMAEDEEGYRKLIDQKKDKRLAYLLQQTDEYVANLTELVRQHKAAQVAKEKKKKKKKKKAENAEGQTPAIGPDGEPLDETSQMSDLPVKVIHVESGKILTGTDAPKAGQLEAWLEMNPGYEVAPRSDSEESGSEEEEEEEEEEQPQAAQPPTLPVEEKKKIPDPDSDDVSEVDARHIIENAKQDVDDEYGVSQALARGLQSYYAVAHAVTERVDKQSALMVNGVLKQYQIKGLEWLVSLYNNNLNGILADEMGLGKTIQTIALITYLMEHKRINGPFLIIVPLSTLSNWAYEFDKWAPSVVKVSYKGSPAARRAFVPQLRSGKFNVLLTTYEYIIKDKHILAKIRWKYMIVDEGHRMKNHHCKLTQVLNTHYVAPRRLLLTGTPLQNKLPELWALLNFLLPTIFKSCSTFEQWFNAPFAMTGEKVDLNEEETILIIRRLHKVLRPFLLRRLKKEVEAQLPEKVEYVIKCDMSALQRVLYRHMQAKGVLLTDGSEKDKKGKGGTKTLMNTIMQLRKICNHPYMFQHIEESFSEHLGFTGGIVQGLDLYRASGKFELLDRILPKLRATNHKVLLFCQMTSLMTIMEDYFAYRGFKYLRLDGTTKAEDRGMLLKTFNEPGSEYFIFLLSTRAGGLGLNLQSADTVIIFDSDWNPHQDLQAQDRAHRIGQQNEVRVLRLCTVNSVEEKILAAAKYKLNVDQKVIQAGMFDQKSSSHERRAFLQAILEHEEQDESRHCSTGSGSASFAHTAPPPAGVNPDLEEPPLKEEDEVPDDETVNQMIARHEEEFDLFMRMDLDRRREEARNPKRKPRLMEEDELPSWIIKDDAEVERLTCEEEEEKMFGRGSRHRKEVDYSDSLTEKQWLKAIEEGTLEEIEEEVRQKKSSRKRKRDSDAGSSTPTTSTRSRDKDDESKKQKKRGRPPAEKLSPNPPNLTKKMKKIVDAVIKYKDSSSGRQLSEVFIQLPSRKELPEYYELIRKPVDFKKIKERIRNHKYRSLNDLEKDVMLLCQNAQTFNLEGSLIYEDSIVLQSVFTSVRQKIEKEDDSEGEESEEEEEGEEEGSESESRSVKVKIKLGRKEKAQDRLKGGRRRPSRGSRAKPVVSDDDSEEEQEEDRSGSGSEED
BRM, sequence (P51531 whole entry): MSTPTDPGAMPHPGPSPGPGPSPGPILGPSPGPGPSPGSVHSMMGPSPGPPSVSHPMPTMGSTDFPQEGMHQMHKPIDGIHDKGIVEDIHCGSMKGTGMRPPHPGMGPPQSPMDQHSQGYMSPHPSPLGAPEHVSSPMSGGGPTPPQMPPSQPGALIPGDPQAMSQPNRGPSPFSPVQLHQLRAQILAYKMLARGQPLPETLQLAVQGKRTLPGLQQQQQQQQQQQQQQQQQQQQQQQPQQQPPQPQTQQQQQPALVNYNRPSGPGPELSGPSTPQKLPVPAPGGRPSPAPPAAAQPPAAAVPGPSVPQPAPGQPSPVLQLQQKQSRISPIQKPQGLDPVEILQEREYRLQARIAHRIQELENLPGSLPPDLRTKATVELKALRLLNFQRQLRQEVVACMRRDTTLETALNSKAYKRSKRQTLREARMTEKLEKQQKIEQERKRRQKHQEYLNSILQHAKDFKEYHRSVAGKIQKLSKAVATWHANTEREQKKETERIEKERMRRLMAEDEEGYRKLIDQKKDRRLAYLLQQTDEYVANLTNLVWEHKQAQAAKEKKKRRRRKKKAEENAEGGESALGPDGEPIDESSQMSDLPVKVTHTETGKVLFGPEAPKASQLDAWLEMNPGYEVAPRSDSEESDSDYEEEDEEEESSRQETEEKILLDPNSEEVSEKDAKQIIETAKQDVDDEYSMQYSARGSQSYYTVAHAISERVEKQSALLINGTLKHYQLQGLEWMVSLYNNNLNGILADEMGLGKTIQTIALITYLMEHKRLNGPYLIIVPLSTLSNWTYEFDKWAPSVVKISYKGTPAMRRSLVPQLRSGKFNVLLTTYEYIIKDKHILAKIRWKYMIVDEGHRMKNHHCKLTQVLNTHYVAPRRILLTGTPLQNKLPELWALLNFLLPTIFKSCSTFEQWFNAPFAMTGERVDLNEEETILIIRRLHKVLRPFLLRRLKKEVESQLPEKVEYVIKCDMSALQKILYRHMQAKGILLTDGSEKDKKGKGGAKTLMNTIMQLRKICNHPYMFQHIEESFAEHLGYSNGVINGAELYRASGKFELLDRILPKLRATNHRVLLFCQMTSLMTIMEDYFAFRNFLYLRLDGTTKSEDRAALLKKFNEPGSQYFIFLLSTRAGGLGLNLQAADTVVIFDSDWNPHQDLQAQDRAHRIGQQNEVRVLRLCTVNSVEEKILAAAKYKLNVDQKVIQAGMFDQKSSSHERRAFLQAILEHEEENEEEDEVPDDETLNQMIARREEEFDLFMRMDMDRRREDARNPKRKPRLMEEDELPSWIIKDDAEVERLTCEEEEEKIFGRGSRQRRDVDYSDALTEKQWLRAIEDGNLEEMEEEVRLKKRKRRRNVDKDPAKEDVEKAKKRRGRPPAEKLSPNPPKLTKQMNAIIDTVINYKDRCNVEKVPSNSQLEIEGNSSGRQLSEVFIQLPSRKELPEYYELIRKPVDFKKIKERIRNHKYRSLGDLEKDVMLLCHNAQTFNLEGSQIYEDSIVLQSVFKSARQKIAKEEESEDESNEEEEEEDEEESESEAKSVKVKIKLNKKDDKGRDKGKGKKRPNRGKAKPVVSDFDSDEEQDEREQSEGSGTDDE

SMILES	DC50 (BRG1) [nM]	Dmax (BRG1) [%]	DC50 (BRM) [nM]	BRM IF Degradation Sinf (%) (BRM)
Nc1nnc(-c2ccccc2O)cc1N1CC2CCC(C1)N2c1ccnc(C#CCN2CC3(CCCCC3)C2)c1 [Compound 230, 2-[6-amino-5-[8-[2-[3-(2-azaspiro[3.5]nonan-2-yl)prop-1-ynyl]-4-pyridyl]-3,8-diazabicyclo[3.2.1]octan-3-yl]pyridazin-3-yl]phenol]	10 to 100	30 to 70	10 to 100	E (E indicates −30%-−70%)
CC1CN(CC#Cc2cc(N3C4CCC3CN(c3cc(-c5ccccc5O)nnc3N)C4)ccn2)CCC(F)(F)C1 (stereo not drawn) [Compound 212, 2-[6-amino-5-[8-[2-[3-(5,5-difluoro-3-methyl-azepan-1-yl)prop-1-ynyl]-4-pyridyl]-3,8-diazabicyclo[3.2.1]octan-3-yl]pyridazin-3-yl]phenol]	< 10	71 to 120	< 10	F (F indicates −71%-−120%)
Nc1nnc(-c2ccccc2O)cc1N1CC2CCC(C1)N2c1ccnc(C#CCN2CC(CO)(c3ccccc3)C2)c1 [Compound 179, 2-[6-amino-5-[8-[2-[3-[3-(hydroxymethyl)-3-phenyl-azetidin-1-yl]prop-1-ynyl]-4-pyridyl]-3,8-diazabicyclo[3.2.1]octan-3-yl]pyridazin-3-yl]phenol]	10 to 100	30 to 70	10 to 100	F (F indicates −71%-−120%)
Nc1nnc(-c2ccccc2O)cc1N1CC2CCC(C1)N2c1ccnc(C#CCN2C[C@@H]3[C@@H](CO)[C@@H]3C2)c1 [Compound 118, 2-[6-amino-5-[8-[2-[3-[(1S,5R)-6-(hydroxymethyl)-3-azabicyclo[3.1.0]hexan-3-yl]prop-1-ynyl]-4-pyridyl]-3,8-diazabicyclo[3.2.1]octan-3-yl]pyridazin-3-yl]phenol]	< 10	30 to 70	10 to 100	E (E indicates −30%-−70%)
Nc1nnc(-c2ccccc2O)cc1N1CC2CCC(C1)N2c1ccnc(C#CCN2CC3(CC(F)C3)C2)c1 [Compound 97, 2-[6-amino-5-[8-[2-[3-(6-fluoro-2-azaspiro[3.3]heptan-2-yl)prop-1-ynyl]-4-pyridyl]-3,8-diazabicyclo[3.2.1]octan-3-yl]pyridazin-3-yl]phenol]	< 10	30 to 70	< 10	F (F indicates −71%-−120%)
Nc1nnc(-c2ccccc2O)cc1N1CC2CCC(C1)N2c1ccnc(C#CCN2CC3CC(CO)CC32)c1 (stereo not drawn) [Compound 217, 2-[6-amino-5-[8-[2-[3-[3-(hydroxymethyl)-6-azabicyclo[3.2.0]heptan-6-yl]prop-1-ynyl]-4-pyridyl]-3,8-diazabicyclo[3.2.1]octan-3-yl]pyridazin-3-yl]phenol]	10 to 100	30 to 70	10 to 100	E (E indicates −30%-−70%)
Nc1nnc(-c2ccccc2O)cc1N1CC2CCC(C1)N2c1ccnc(C#CCN2CCOC(F)(F)C2)c1 [Compound 112, 2-[6-amino-5-[8-[2-[3-(2,2-difluoromorpholin-4-yl)prop-1-ynyl]-4-pyridyl]-3,8-diazabicyclo[3.2.1]octan-3-yl]pyridazin-3-yl]phenol]	10 to 100	0 to 30	< 10	E (E indicates −30%-−70%)
Nc1nnc(-c2ccccc2O)cc1N1CC2CCC(C1)N2c1ccnc(C#CCN2CC3CC3(CO)C2)c1 (stereo not drawn) [Compound 137, 2-[6-amino-5-[8-[2-[3-[1-(hydroxymethyl)-3-azabicyclo[3.1.0]hexan-3-yl]prop-1-ynyl]-4-pyridyl]-3,8-diazabicyclo[3.2.1]octan-3-yl]pyridazin-3-yl]phenol]	< 10	30 to 70	< 10	E (E indicates −30%-−70%)
Nc1nnc(-c2ccccc2O)cc1N1CC2CCC(C1)N2c1ccnc(C#CCN2C[C@@H]3C[C@@H](O)[C@H]2C3)c1 [Compound 109, (1R,4S,6R)-2-[3-[4-[3-[3-amino-6-(2-hydroxyphenyl)pyridazin-4-yl]-3,8-diazabicyclo[3.2.1]octan-8-yl]-2-pyridyl]prop-2-ynyl]-2-azabicyclo[2.2.1]heptan-6-ol]	< 10	30 to 70	< 10	E (E indicates −30%-−70%)
CC1(C)CCN1CC#Cc1cc(N2C3CCC2CN(c2cc(-c4ccccc4O)nnc2N)C3)ccn1 [Compound 187, 2-[6-amino-5-[8-[2-[3-(2,2-dimethylazetidin-1-yl)prop-1-ynyl]-4-pyridyl]-3,8-diazabicyclo[3.2.1]octan-3-yl]pyridazin-3-yl]phenol]	< 10	30 to 70	< 10	E (E indicates −30%-−70%)
Nc1nnc(-c2ccccc2O)cc1N1CC2CCC(C1)N2c1ccnc(C#CCN2CCC3(CCC3)C2)c1 [Compound 129, 2-[6-amino-5-[8-[2-[3-(6-azaspiro[3.4]octan-6-yl)prop-1-ynyl]-4-pyridyl]-3,8-diazabicyclo[3.2.1]octan-3-yl]pyridazin-3-yl]phenol]	< 10	30 to 70	< 10	E (E indicates −30%-−70%)
Nc1nnc(-c2ccccc2O)cc1N1CC2CCC(C1)N2c1ccnc(C#CCN2CC(C3CC3)C2)c1 [Compound 150, 2-[6-amino-5-[8-[2-[3-(3-cyclopropylazetidin-1-yl)prop-1-ynyl]-4-pyridyl]-3,8-diazabicyclo[3.2.1]octan-3-yl]pyridazin-3-yl]phenol]	< 10	30 to 70	< 10	F (F indicates −71%-−120%)
COC1CN(CC#Cc2cc(N3C4CCC3CN(c3cc(-c5ccccc5O)nnc3N)C4)ccn2)C1 [Compound 174, 2-[6-amino-5-[8-[2-[3-(3-methoxyazetidin-1-yl)prop-1-ynyl]-4-pyridyl]-3,8-diazabicyclo[3.2.1]octan-3-yl]pyridazin-3-yl]phenol]	10 to 100	30 to 70	10 to 100	F (F indicates −71%-−120%)
CNC(=O)C1COCCN1CC#Cc1cc(N2C3CCC2CN(c2cc(-c4ccccc4O)nnc2N)C3)ccn1 (stereo not drawn) [Compound 89, 4-[3-[4-[3-[3-amino-6-(2-hydroxyphenyl)pyridazin-4-yl]-3,8-diazabicyclo[3.2.1]octan-8-yl]-2-pyridyl]prop-2-ynyl]-N-methyl-morpholine-3-carboxamide]	> 100	–	10 to 100	E (E indicates −30%-−70%)
Nc1nnc(-c2ccccc2O)cc1N1CC2CCC(C1)N2c1ccnc(C#CCN2CCC3CNCC32)c1 (stereo not drawn) [Compound 146, 2-[5-[8-[2-[3-(3,3a,4,5,6,6a-hexahydro-2H-pyrrolo[3,4-b]pyrrol-1-yl)prop-1-ynyl]-4-pyridyl]-3,8-diazabicyclo[3.2.1]octan-3-yl]-6-amino-pyridazin-3-yl]phenol]	> 100	30 to 70	> 100	E (E indicates −30%-−70%)
Nc1nnc(-c2ccccc2O)cc1N1CC2CCC(C1)N2c1ccnc(C#CCN2CCOC3(CC3)C2)c1 [Compound 124, 2-[6-amino-5-[8-[2-[3-(4-oxa-7-azaspiro[2.5]octan-7-yl)prop-1-ynyl]-4-pyridyl]-3,8-diazabicyclo[3.2.1]octan-3-yl]pyridazin-3-yl]phenol]	> 100	–	< 10	E (E indicates −30%-−70%)
Nc1nnc(-c2ccccc2O)cc1N1CC2CCC(C1)N2c1ccnc(C#CCN2CCC(O)C2)c1 (stereo not drawn) [Compound 52, 1-[3-[4-[3-[3-amino-6-(2-hydroxyphenyl)pyridazin-4-yl]-3,8-diazabicyclo[3.2.1]octan-8-yl]-2-pyridyl]prop-2-ynyl]pyrrolidin-3-ol]	10 to 100	30 to 70	10 to 100	E (E indicates −30%-−70%)
Nc1nnc(-c2ccccc2O)cc1N1CC2CCC(C1)N2c1ccnc(C#CCN2CCC3CCC2C3)c1 (stereo not drawn) [Compound 221, 2-[6-amino-5-[8-[2-[3-(2-azabicyclo[3.2.1]octan-2-yl)prop-1-ynyl]-4-pyridyl]-3,8-diazabicyclo[3.2.1]octan-3-yl]pyridazin-3-yl]phenol]	< 10	30 to 70	< 10	E (E indicates −30%-−70%)
CC1CN(CC#Cc2cc(N3C4CCC3CN(c3cc(-c5ccccc5O)nnc3N)C4)ccn2)CCCC1O (stereo not drawn) [Compound 196, 1-[3-[4-[3-[3-amino-6-(2-hydroxyphenyl)pyridazin-4-yl]-3,8-diazabicyclo[3.2.1]octan-8-yl]-2-pyridyl]prop-2-ynyl]-3-methyl-azepan-4-ol]	< 10	71 to 120	< 10	F (F indicates −71%-−120%)
Nc1nnc(-c2ccccc2O)cc1N1CC2CCC(C1)N2c1ccnc(C#CCN2CCC3(CCCC3)C2)c1 [Compound 127, 2-[6-amino-5-[8-[2-[3-(2-azaspiro[4.4]nonan-2-yl)prop-1-ynyl]-4-pyridyl]-3,8-diazabicyclo[3.2.1]octan-3-yl]pyridazin-3-yl]phenol]	< 10	30 to 70	< 10	E (E indicates −30%-−70%)
